{"source": "patent US8071612B2", "about": "“6-alkenyl and 6-phenylalkyl substituted 2-quinolinones and 2-quinoxalinones as poly(ADP-ribose) polymerase inhibitors” (Janssen Pharmaceutica, NV, priority 2004, dated 2011)", "key": {"PARP-1 enzyme [1]": {"molecular_target": "T1, PARP-1 enzyme (Homo sapiens, UniProt P09874)", "T1 construct": "made in house", "T1 sequence (P09874 whole entry)": "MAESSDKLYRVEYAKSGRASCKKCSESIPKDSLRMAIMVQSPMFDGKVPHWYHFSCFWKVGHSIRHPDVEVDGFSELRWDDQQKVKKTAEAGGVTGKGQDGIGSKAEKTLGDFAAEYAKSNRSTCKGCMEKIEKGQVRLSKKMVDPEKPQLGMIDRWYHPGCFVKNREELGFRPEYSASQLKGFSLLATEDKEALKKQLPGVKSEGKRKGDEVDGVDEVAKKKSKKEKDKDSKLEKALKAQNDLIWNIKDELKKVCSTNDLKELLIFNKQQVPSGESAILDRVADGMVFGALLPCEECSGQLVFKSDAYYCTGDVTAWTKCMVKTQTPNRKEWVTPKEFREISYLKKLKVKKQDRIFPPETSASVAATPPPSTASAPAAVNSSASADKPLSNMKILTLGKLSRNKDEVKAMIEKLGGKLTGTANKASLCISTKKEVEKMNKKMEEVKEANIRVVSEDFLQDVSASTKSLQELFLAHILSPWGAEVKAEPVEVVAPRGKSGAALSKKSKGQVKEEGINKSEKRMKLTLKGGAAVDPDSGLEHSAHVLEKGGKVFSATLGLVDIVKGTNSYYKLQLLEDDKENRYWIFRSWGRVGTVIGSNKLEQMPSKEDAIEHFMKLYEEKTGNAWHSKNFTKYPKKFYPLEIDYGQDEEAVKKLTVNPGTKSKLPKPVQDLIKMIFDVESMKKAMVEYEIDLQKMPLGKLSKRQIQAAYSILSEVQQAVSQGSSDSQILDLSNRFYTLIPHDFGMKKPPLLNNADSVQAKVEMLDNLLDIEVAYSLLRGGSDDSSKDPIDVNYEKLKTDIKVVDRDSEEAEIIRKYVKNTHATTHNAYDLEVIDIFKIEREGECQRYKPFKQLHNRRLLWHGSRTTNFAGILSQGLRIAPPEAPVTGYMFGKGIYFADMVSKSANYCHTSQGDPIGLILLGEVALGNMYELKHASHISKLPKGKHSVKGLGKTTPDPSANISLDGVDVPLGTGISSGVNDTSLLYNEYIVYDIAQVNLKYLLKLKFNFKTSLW", "assay": "In vitro Scintillation Proximity Assay (SPA) for PARP-1 inhibitory activity", "format": "biochemical", "conditions": "nicked DNA activated PARP-1, [3H]-NAD+, biotinylated histones; read-out: In vitro SPA pIC50 (converted)", "experimental": "Compounds of the present invention were tested in an in vitro assay based on SPA technology (proprietary to Amersham Pharmacia Biotech).\nIn principle, the assay relies upon the well established SPA technology for the detection of poly(ADP-ribosyl)ation of biotinylated target proteins, i.e histones. This ribosylation is induced using nicked DNA activated PARP-1 enzyme and [^3H]-nicotinamide adenine dinucleotide ([^3H]-NAD^+) as ADP-ribosyl donor.\nAs inducer of PARP-1 enzyme activity, nicked DNA was prepared. For this, 25 mg of DNA (supplier: Sigma) was dissolved in 25 ml DNAse buffer (10 mM Tris-HCl, pH 7.4; 0.5 mg/ml Bovine Serum Albumine (BSA); 5 mM MgCl2.6H2O and 1 mM KCl) to which 50 μl DNAse solution (1 mg/ml in 0.15 M NaCl) was added. After an incubation of 90 min. at 37° C., the reaction was terminated by adding 1.45 g NaCl, followed by a further incubation at 58° C. for 15 min. The reaction mixture was cooled on ice and dialysed at 4° C. for respectively 1.5 and 2 hours against 1.5 l of 0.2 M KCl, and twice against 1.5 l of 0.01 M KCl for 1.5 and 2 h respectively. The mixture was aliquoted and stored at −20° C. Histones (1 mg/ml, type II-A, supplier: Sigma) were biotinylated using the biotinylation kit of Amersham and stored aliquoted at −20° C. A stock solution of 100 mg/ml SPA poly(vinyl toluene) (PVT) beads (supplier: Amersham) was made in PBS. A stock solution of [^3]H-NAD^+ was made by adding 120 μl of [^3H]-NAD^+ (0.1 mCi/ml, supplier: NEN) to 6 ml incubation buffer (50 mM Tris/HCl, pH 8; 0.2 mM DTT; 4 mM MgCl2). A solution of 4 mM NAD^+ (supplier: Roche) was made in incubation buffer (from a 100 mM stock solution in water stored at −20° C.). The PARP-1 enzyme was produced using art known techniques, i.e. cloning and expression of the protein starting from human liver cDNA. Information concerning the used protein sequence of the PARP-1 enzyme including literature references can be found in the Swiss-Prot database under primary accession number P09874. Biotinylated histones and PVT-SPA beads were mixed and pre-incubated for 30 min. at room temperature. PARP-1 enzyme (concentration was lot dependent) was mixed with the nicked DNA and the mixture was pre-incubated for 30 min. at 4° C. Equal parts of this histones/PVT-SPA beads solution and PARP-1 enzyme/DNA solution were mixed and 75 μl of this mixture together with 1 μl of compound in DMSO and 25 μl of [^3H]-NAD^+ was added per well into a 96-well microtiterplate. The final concentrations in the incubation mixture were 2 μg/ml for the biotinylated histones, 2 mg/ml for the PVT-SPA beads, 2 μg/ml for the nicked DNA and between 5-10 μg/ml for the PARP-1 enzyme. After incubation of the mixture for 15 min. at room temperature, the reaction was terminated by adding 100 μl of 4 mM NAD^+ in incubation buffer (final concentration 2 mM) and plates were mixed.\nThe beads were allowed to sediment for at least 15 min. and plates transferred to a TopCountNXT™ (Packard) for scintillation counting, values were expressed as counts per minute (cpm). For each experiment, controls (containing PARP-1 enzyme and DMSO without compound), a blank incubation (containing DMSO but no PARP-1 enzyme or compound) and samples (containing PARP-1 enzyme and compound dissolved in DMSO) were run in parallel. All compounds tested were dissolved and eventually further diluted in DMSO. In first instance, compounds were tested at a concentration of 10^−5 M or 10^−6M. […] In each test, the blank value was subtracted from both the control and the sample values. The control sample represented maximal PARP-1 enzyme activity. For each sample, the amount of cpm was expressed as a percentage of the mean cpm value of the controls. When appropriate, IC50-values (concentration of the drug, needed to reduce the PARP-1 enzyme activity to 50% of the control) were computed using linear interpolation between the experimental points just above and below the 50% level. […]"}, "PARP-1 enzyme [2]": {"molecular_target": "T1, PARP-1 enzyme", "assay": "In vitro filtration assay for PARP-1 inhibitory activity", "format": "biochemical", "conditions": "nicked DNA activated PARP-1, [32P]-NAD, histones; read-out: In vitro filtration assay pIC50 (converted)", "experimental": "Compounds of the present invention were tested in an in vitro filtration assay assessing PARP-1 activity (triggered in the presence of nicked DNA) by means of its histone poly (ADP-ribosyl)ation activity using [^32P]-NAD as ADP-ribosyl donor. The radioactive ribosylated histones were precipitated by trichloroacetic acid (TCA) in 96-well filterplates and the incorporated [^32P] measured using a scintillation counter\nA mixture of histones (stock solution: 5 mg/ml in H2O), NAD (stock solution: 100 mM in H2O), and [^32P]-NAD^+ in incubation buffer (50 mM Tris/HCl, pH 8; 0.2 mM DTT; 4 mM MgCl2) was made. A mixture of the PARP-1 enzyme (5-10 μg/ml) and nicked DNA was also made. The nicked DNA was prepared as described in the in vitro SPA for PARP-1 inhibitory activity. Seventy-five μl of the PARP-1 enzyme/DNA mixture together with 1 μl of compound in DMSO and 25 μl of histones-NAD^+/[^32P]-NAD^+ mixture was added per well of a 96-well filterplate (0.45 μm, supplier Millipore). The final concentrations in the incubation mixture were 2 μg/ml for the histones, 0.1 mM for the NAD^+, […] (0.5 μC) for the [^32P]-NAD^+ and 2 μg/ml for the nicked DNA. Plates were incubated for 15 min. at room temperature and the reaction was terminated by the addition of 10 μl ice cold 100% TCA followed by the addition of 10 μl ice-cold BSA solution (1% in H2O). The protein fraction was allowed to precipitate for 10 min. at 4° C. and plates were vacuum filtered. The plates were subsequently washed with, for each well, 1 ml of 10% ice cold TCA, 1 ml of 5% ice cold TCA and 1 ml of 5% TCA at room temperature. Finally 100 μl of scintillation solution (Microscint 40, Packard) was added to each well and the plates were transferred to a TopCountNXT™ (supplier: Packard) for scintillation counting and values were expressed as counts per minute (cpm). For each experiment, controls (containing PARP-1 enzyme and DMSO without compound), a blank incubation (containing DMSO but no PARP-1 enzyme or compound) and samples (containing PARP-1 enzyme and compound dissolved in DMSO) were run in parallel. All compounds tested were dissolved and eventually further diluted in DMSO. In first instance, compounds were tested at a concentration of 10^−5M. […] In each test, the blank value was subtracted from both the control and the sample values. The control sample represented maximal PARP-1 enzyme activity. For each sample, the amount of cpm was expressed as a percentage of the mean cpm value of the controls. When appropriate, IC50-values (concentration of the drug, needed to reduce the PARP-1 enzyme activity to 50% of the control) were computed using linear interpolation between the experimental points just above and below the 50% level. Herein the effects of test compounds are expressed as pIC50 (the negative log value of the IC50-value). As a reference compound, 4-amino-1,8-naphthalimide was included to validate the filtration assay."}}, "data": [{"smiles": "Cc1cc2cc(C(c3ccccc3)c3cncn3C)ccc2[nH]c1=O", "note": "(stereo not shown) (hydrate or solvate) [Compound 10]", "values": [{"measurement": "melting point", "value": 240, "unit": "°C"}]}, {"smiles": "CCc1cc2cc([C@@H](CCN3CCCCC3)c3ccc4c(c3)OCCO4)ccc2[nH]c1=O", "note": "(single isomer, unassigned) [Compound 144]", "values": [{"measurement": "melting point", "value": 159, "unit": "°C"}]}, {"smiles": "CCc1cc2cc([C@H](CCN3CCCCC3)c3ccc4c(c3)OCCO4)ccc2[nH]c1=O", "note": "(single isomer, unassigned) [Compound 145]", "values": [{"measurement": "melting point", "value": 172, "unit": "°C"}]}, {"smiles": "CCc1cc2cc(C(=O)c3ccc4c(c3)OCCO4)ccc2[nH]c1=O", "note": "[Compound 2]", "values": [{"measurement": "IC50", "setting": "PARP-1 enzyme [1]", "value": 735, "unit": "nM"}, {"measurement": "melting point", "value": 255, "unit": "°C"}]}, {"smiles": "COCCNC1CCN(C(c2ccc3c(c2)OCCO3)c2ccc3[nH]c(=O)c4ccccc4c3c2)CC1", "note": "(stereo not shown) [Compound 11]", "values": [{"measurement": "IC50", "setting": "PARP-1 enzyme [1]", "value": 7.29, "unit": "nM"}, {"measurement": "melting point", "value": 116, "unit": "°C"}]}, {"smiles": "CCc1cc2cc(C(O)c3ccc4c(c3)OCO4)ccc2[nH]c1=O", "note": "(stereo not shown) [Compound 12]", "values": [{"measurement": "IC50", "setting": "PARP-1 enzyme [1]", "value": 40.1, "unit": "nM"}, {"measurement": "melting point", "value": 211, "unit": "°C"}]}, {"smiles": "Cc1cccc(C(NC=O)c2ccc3[nH]c(=O)c(C)cc3c2)c1", "note": "(stereo not shown) [Compound 98]", "values": [{"measurement": "IC50", "setting": "PARP-1 enzyme [1]", "value": 274, "unit": "nM"}, {"measurement": "IC50", "setting": "PARP-1 enzyme [2]", "value": 3830, "unit": "nM"}]}, {"smiles": "Cc1cc2cc(C(NC=O)c3ccc4c(c3)OCO4)ccc2[nH]c1=O", "note": "(stereo not shown) [Compound 99]", "values": [{"measurement": "IC50", "setting": "PARP-1 enzyme [1]", "value": 289, "unit": "nM"}, {"measurement": "IC50", "setting": "PARP-1 enzyme [2]", "value": 1470, "unit": "nM"}]}, {"smiles": "CCOC(=O)c1ccc(C(NC=O)c2ccc3[nH]c(=O)c(C)cc3c2)cc1", "note": "(stereo not shown) [Compound 100]", "values": [{"measurement": "IC50", "setting": "PARP-1 enzyme [1]", "value": 502, "unit": "nM"}, {"measurement": "IC50", "setting": "PARP-1 enzyme [2]", "value": 3510, "unit": "nM"}]}, {"smiles": "COc1cccc(C(NC=O)c2ccc3[nH]c(=O)c(C)cc3c2)c1", "note": "(stereo not shown) [Compound 101]", "values": [{"measurement": "IC50", "setting": "PARP-1 enzyme [1]", "value": 773, "unit": "nM"}, {"measurement": "IC50", "setting": "PARP-1 enzyme [2]", "value": 2840, "unit": "nM"}]}, {"smiles": "Cc1cc2cc(C(NC=O)c3ccc(F)cc3)ccc2[nH]c1=O", "note": "(stereo not shown) [Compound 102]", "values": [{"measurement": "IC50", "setting": "PARP-1 enzyme [1]", "value": 366, "unit": "nM"}, {"measurement": "IC50", "setting": "PARP-1 enzyme [2]", "value": 1590, "unit": "nM"}]}, {"smiles": "Cc1cc2cc(CCC(NC=O)c3ccccc3)ccc2[nH]c1=O", "note": "(stereo not shown) [Compound 103]", "values": [{"measurement": "IC50", "setting": "PARP-1 enzyme [1]", "value": 902, "unit": "nM"}, {"measurement": "IC50", "setting": "PARP-1 enzyme [2]", "value": 7730, "unit": "nM"}]}, {"smiles": "Cc1cc2cc(C(NC=O)c3cccc(Cl)c3)ccc2[nH]c1=O", "note": "(stereo not shown) [Compound 104]", "values": [{"measurement": "IC50", "setting": "PARP-1 enzyme [1]", "value": 501, "unit": "nM"}, {"measurement": "IC50", "setting": "PARP-1 enzyme [2]", "value": 2380, "unit": "nM"}]}, {"smiles": "Cc1cc2cc(C(NC=O)c3ccc(Cl)cc3)ccc2[nH]c1=O", "note": "(stereo not shown) [Compound 105]", "values": [{"measurement": "IC50", "setting": "PARP-1 enzyme [1]", "value": 618, "unit": "nM"}, {"measurement": "IC50", "setting": "PARP-1 enzyme [2]", "value": 1470, "unit": "nM"}]}, {"smiles": "Cc1cc2cc(C(NC=O)c3ccccc3)ccc2[nH]c1=O", "note": "(stereo not shown) [Compound 106]", "values": [{"measurement": "IC50", "setting": "PARP-1 enzyme [1]", "value": 493, "unit": "nM"}, {"measurement": "IC50", "setting": "PARP-1 enzyme [2]", "value": 1680, "unit": "nM"}]}, {"smiles": "COc1cccc(C(O)c2ccc3[nH]c(=O)c(C)cc3c2)c1", "note": "(stereo not shown) [Compound 107]", "values": [{"measurement": "IC50", "setting": "PARP-1 enzyme [1]", "value": 841, "unit": "nM"}, {"measurement": "IC50", "setting": "PARP-1 enzyme [2]", "value": 10000, "unit": "nM"}]}, {"smiles": "CCOC(=O)c1ccc(C(O)c2ccc3[nH]c(=O)c(C)cc3c2)cc1", "note": "(stereo not shown) [Compound 109]", "values": [{"measurement": "IC50", "setting": "PARP-1 enzyme [1]", "value": 755, "unit": "nM"}, {"measurement": "IC50", "setting": "PARP-1 enzyme [2]", "value": 2320, "unit": "nM"}]}]}
